From US20230285405A1, “Pharmaceuticals for Treating or Preventing Nidoviruses and Picornaviruses” (priority 2020, published 2023)
Where a name gives a salt, the structure may show the parent alone. Read-outs that look alike come from different tables or passages of the source.

Legend:
[1] = system: OC43; experiment: Drug screening: OC43 nucleoprotein staining in infected A549-mRuby cells; format: cell-based, human beta coronavirus OC43
How it was run: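 Repurposing screen: drugs at 10 μM final added 1 h after OC43 infection (MOI 0.3) of H2B-mRuby A549 cells, 4-day incubation at 33° C. Cell counts imaged at day 0 and day 4; nucleoprotein staining per cell normalized to untreated infected wells, hit threshold >3 SD in duplicate screens, non-toxic.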

[2] = system: A549-mRuby cells; experiment: Drug screening: effect on cell growth (cell number day 4 / day 0); conditions: 10 μM drug; for Growth_1: number of cells at day 4 divided by number of cells at day 0 / toxic_1: repeat #1; for Growth_2: number of cells at day 4 divided by number of cells at day 0 / toxic_2: repeat #2
How it was run: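 Growth was scored as day 4/day 0 cell count from images of OC43-infected (MOI 0.3) A549-mRuby nuclear-reporter cells. Compounds were added at 10 μM final after a 1 h infection at 33° C, followed by 4 days of culture at 33° C in two independent screens.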

[3] = system: OC43; experiment: Dose-response analysis of OC43 infection; format: cell-based, human beta coronavirus OC43
Procedure: Dose-response analysis of OC43 infection was done similarly to the drug screening, except cells were seeded at a concentration of 5,000 cells per well and the media contained 2% BCS instead of 10% BCS. OC43 staining was performed 2 days after infection and analyzed similarly to what was described for the drug screening. A sigmoid fit was used to extract EC50 values using Matlab.

[4] = system: SARS-CoV-2; experiment: microbe, parasite or virus in culture; format: cell-based, SARS-CoV-2 (nCoV/Washington/1/2020); conditions: for EC50: read-out: EC50 SARS2
[5] = 10 μM drug, MOI 0.3, 4 days, OC43 staining normalized to no-drug controls, mean of the two screen repeats
[6] = 10 μM drug, MOI 0.3, 4 days, normalized to no-drug controls in the same plate, repeat #1
[7] = 10 μM drug, MOI 0.3, 4 days, normalized to no-drug controls in the same plate, repeat #2
[8] = A549-mRuby cells, staining 2 days after infection, read-out: EC50 OC43
[9] = Betacoronavirus 1, OC43, 96 h, 10 μM drug, MOI 0.3, 4 days, OC43 staining normalized to no-drug controls, mean of the two screen repeats, read-out: OC43_mean
[10] = Betacoronavirus 1, OC43, 96 h, 10 μM drug, MOI 0.3, 4 days, normalized to no-drug controls in the same plate, repeat #1, read-out: OC43_1: % staining of OC43 in screen repeat #1
[11] = Betacoronavirus 1, OC43, 96 h, 10 μM drug, MOI 0.3, 4 days, normalized to no-drug controls in the same plate, repeat #2, read-out: OC43_2: % staining of OC43 in screen repeat #2
[12] = Betacoronavirus 1, OC43, 48 h, read-out: EC50 OC43, A549-mRuby cells, staining 2 days after infection
[13] = Severe acute respiratory syndrome coronavirus 2

Molecule	OC43_mean [1, 5] [%]	OC43_1: % staining of OC43 in screen repeat #1 [1, 6] [%]	OC43_2: % staining of OC43 in screen repeat #2 [1, 7] [%]	hit_1 ([1]; 10 μM drug, repeat #1)	hit_2 ([1]; 10 μM drug, repeat #2)	Growth_1: number of cells at day 4 divided by number of cells at day 0 [2]	toxic_1 [2]	Growth_2: number of cells at day 4 divided by number of cells at day 0 [2]	toxic_2 [2]	activity at 10 µM [1, 9] [%]	activity at 10 µM [1, 10] [%]	activity at 10 µM [1, 11] [%]	EC50 [3, 12] [nM]	also measured
C[C@@H]1[C@H](O)[C@@H](C)/C=C/C=C/C=C/C=C/C=C/C=C/C=C/[C@H](O[C@@H]2O[C@H](C)[C@@H](O)[C@H](N)[C@@H]2O)C[C@@H]2O[C@](O)(C[C@@H](O)C[C@@H](O)[C@H](O)CC[C@@H](O)C[C@@H](O)CC(=O)O[C@H]1C)C[C@H](O)[C@H]2C(=O)O [Amphotericin B]	6.6	1.5	11.8	1	1	4.3	0	5.8	0	–	–	–	–	EC50 [3, 8]: 40 nM; inhibition of SARS-CoV-2 infection (in words) [4]: did not inhibit SARS-CoV-2 infection; EC50 [4]: > 1000 nM
CN1CCCC(n2nc(Cc3ccc(Cl)cc3)c3ccccc3c2=O)CC1.O (stereo not drawn) [Azelastine HCl]	–	–	–	1	1	4.1	0	3.2	0	19.1	19.6	18.5	3700	inhibition of OC43 infection (in words) ([3]; dose-response): inhibits; inhibition of SARS-CoV-2 infection (in words) [4]: inhibits; EC50 [4, 13]: 2400 nM
CCCCOC(=O)c1ccc(N)cc1 [Butamben]	–	–	–	1	1	3.9	0	4.7	0	4.9	3.8	6.1	3100	EC50 [4, 13]: > 10000 nM
CCCCOC(=O)c1ccc(O)cc1 [Butylparaben]	–	–	–	1	1	3.3	0	3.6	0	5.2	7	3.5	1700	EC50 [4, 13]: > 10000 nM
OCCN1CCN(CC/C=C2/c3ccccc3Sc3ccc(C(F)(F)F)cc32)CC1 [Flupenthixol dihydrochloride]	–	–	–	–	–	–	–	–	–	–	–	–	–	EC50 ([3]; read-out: EC50 OC43): 1800 nM; EC50 [4]: 560 nM
CN(C)CCCN1c2ccccc2CCc2ccccc21.O [Imipramine HCl]	–	–	–	1	1	4.0	0	4.2	0	–	6.7	22.3	6000	activity at 10 µM ([1]; Betacoronavirus 1, OC43, 96 h, read-out: OC43_mean, 10 μM drug, MOI 0.3, 4 days, OC43 staining normalized to no-drug controls, mean of the two screen repeats): 14.5%
CCC(CC)COC(=O)[C@H](C)N[P@](=O)(OC[C@H]1O[C@@](C#N)(c2ccc3c(N)ncnn23)[C@H](O)[C@@H]1O)Oc1ccccc1 [Remdesivir]	–	–	–	–	–	–	–	–	–	–	–	–	–	EC50 [3, 8]: 960 nM; EC50 ([3]; Betacoronavirus 1, OC43, 48 h, A549-mRuby cells, staining 2 days after infection, read-out: EC50 OC43): 900 nM; EC50 [4, 13]: 100 nM
Cc1ccc(O)c([C@H](CCN(C(C)C)C(C)C)c2ccccc2)c1.O=C(O)C(O)C(O)C(=O)O [Tolterodine tartrate]	–	–	–	1	1	5.0	0	5.1	0	16.6	21.7	11.6	7000	–
CC(CN(C)C)CN1c2ccccc2CCc2ccccc21 (stereo not drawn) [Trimipramine maleate]	–	–	–	–	–	–	–	–	–	–	–	–	3800	EC50 [4, 13]: 1500 nM
C=C[C@]1(C)C[C@@H](OC(=O)CSC(C)(C)CNC(=O)[C@H](N)C(C)C)[C@]2(C)[C@H](C)CC[C@]3(CCC(=O)[C@H]32)[C@@H](C)[C@@H]1O [Valnemulin HCl]	–	–	–	1	1	4.4	0	4.5	0	–	27.7	37.1	–	activity at 10 µM ([1]; Betacoronavirus 1, 96 h, 10 μM drug, MOI 0.3, 4 days, OC43 staining normalized to no-drug controls, mean of the two screen repeats, read-out: OC43_mean): 32.4%
CCOC(=O)N[C@@H]1CC[C@@H]2[C@@H](C1)C[C@H]1C(=O)O[C@H](C)[C@H]1[C@H]2/C=C/c1ccc(-c2cccc(F)c2)cn1 [Vorapaxar]	–	–	–	1	1	4.4	0	4.1	0	50.9	53.5	48.3	–	–
Cc1cc(C(C)(C)C)cc(C)c1CC1=NCCN1 [Xylometazoline HCl]	–	–	–	1	1	5.4	0	5.7	0	49.7	54	45.4	–	–
Alimemazine Tartrate	40.8	47.9	33.7	1	1	2.6	0	2.2	0	–	–	–	–	–
Carvedilol Phosphate	28.9	32.3	25.5	1	1	4.4	0	2.9	0	–	–	–	–	–
Dimemorfan phosphate	–	39.7	26.2	1	1	6.0	0	5.4	0	–	–	–	–	OC43_mean [1]: 33.0%
Erythromycin Cyclocarbonate	18.9	16.7	21.1	1	1	5.7	0	6.0	0	–	–	–	–	EC50 [3, 8]: > 10000 nM
Ibutilide Fumarate	54.4	45.9	63.0	1	1	4.8	0	4.8	0	–	–	–	–	–
Ifenprodil Tartrate	25.6	29.0	22.1	1	1	4.6	0	4.9	0	–	–	–	–	–
Pizotifen Malate	25.4	33.3	17.5	1	1	3.4	0	2.8	0	–	–	–	–	–
Prochlorperazine dimaleate salt	40.2	47.2	33.1	1	1	3.1	0	3.1	0	–	–	–	–	–
